Target: T1, TYK2 (Homo sapiens, UniProt P29597)
T1 construct: Degradation of TYK2 in cells was quantitatively measured using Meso Scale Discovery (MSD) technology; endogenous in cells; host or cells: OCI-LY10
Assay: TYK2 MSD degradation in OCI-LY10 cells
Assay type: cell-based
Conditions: TYK2 degradation in OCI-LY10 cells, 4 to 24 hours incubation; for DC50: read-out: TYK2 MSD OCI-LY10 Rel-DC50
How it was run: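 Cellular TYK2 levels were measured by Meso Scale Discovery sandwich detection in RIPA lysates of OCI-LY10 cells exposed 4 to 24 hours at 37° C to nine 1:3 compound doses starting at 1 to 10 μM final; dose-response fitted by four-parameter regression.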

T1 sequence (P29597 whole entry): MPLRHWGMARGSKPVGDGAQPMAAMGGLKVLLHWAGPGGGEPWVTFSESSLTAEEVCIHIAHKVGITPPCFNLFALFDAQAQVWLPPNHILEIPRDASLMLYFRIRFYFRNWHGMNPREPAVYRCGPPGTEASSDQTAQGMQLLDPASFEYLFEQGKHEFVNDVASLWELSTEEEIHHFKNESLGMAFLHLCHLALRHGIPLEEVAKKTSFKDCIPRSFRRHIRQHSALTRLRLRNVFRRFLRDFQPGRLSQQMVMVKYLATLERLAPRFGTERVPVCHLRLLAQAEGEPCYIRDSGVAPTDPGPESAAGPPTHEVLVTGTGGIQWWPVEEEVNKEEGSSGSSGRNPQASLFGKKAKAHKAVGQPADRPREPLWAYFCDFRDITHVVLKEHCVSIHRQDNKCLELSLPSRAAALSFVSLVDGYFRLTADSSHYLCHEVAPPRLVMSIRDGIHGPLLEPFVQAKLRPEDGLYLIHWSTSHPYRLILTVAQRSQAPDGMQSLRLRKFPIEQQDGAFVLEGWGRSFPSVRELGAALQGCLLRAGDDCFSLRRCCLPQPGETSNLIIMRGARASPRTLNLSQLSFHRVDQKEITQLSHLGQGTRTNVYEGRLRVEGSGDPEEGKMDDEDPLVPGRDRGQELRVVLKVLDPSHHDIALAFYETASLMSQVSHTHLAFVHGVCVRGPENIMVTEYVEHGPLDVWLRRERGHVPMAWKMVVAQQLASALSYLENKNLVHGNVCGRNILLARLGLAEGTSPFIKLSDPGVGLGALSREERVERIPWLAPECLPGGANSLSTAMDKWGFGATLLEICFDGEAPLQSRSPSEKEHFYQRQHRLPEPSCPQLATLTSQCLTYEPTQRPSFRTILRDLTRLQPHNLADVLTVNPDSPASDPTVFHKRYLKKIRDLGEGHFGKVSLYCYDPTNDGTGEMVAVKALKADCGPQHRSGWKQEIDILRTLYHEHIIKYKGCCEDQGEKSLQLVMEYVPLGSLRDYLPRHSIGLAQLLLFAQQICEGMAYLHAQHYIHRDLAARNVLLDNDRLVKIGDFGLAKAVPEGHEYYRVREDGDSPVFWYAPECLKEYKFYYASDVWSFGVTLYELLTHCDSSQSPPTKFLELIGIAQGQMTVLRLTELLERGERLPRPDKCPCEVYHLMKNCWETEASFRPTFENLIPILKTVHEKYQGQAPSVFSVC

| Structure (SMILES) | TYK2 MSD OCI-LY10 Dmax % | DC50 [nM] | Dmax [%] |
| --- | --- | --- | --- |
| CNc1cc(N2CCc3c(-c4ccc(CN5CC6(CCC(=Cc7ccc(Cl)c(N8CCC(=O)NC8=O)c7)CC6)C5)cn4)cccc32)nn2c(C(=O)N[C@@H]3C[C@@H]3F)cnc12 [I-884] | C (C (75 to 50%)) | 10 to 100 |  |
| CNc1cc(N2CCc3c(-c4ccc(N5CCC6(CCN(C(=O)c7ccc(N8CCC(=O)NC8=O)c(Cl)c7)CC6)CC5)cn4)cccc32)nn2c(C(=O)N[C@@H]3C[C@@H]3F)cnc12 [I-885] | C (C (75 to 50%)) | 10 to 100 |  |
| CNc1cc(N2CCc3c(-c4ccc(CN5CC6(CCN(C(=O)c7ccc(Cl)c(N8CCC(=O)NC8=O)c7)CC6(F)F)C5)cn4)cccc32)nn2c(C(=O)N[C@H]3C[C@H](OC)C3)cnc12 [I-886] | B (B (90 to >75%)) | < 10 |  |
| CNc1cc(N2CCc3c(N4CCN(CCC5CC6(CCN(C(=O)c7ccc(Cl)c(N8CCC(=O)NC8=O)c7)CC6)C5)CC4)cccc32)nn2c(C(=O)N[C@@H]3C[C@@H]3F)cnc12 [I-887] | B (B (90 to >75%)) | < 10 |  |
| CNc1cc(N2CCc3c(-c4ccc(CN5CC6(CCN(C(=O)c7ccc(Cl)c(N8CCC(=O)NC8=O)c7)CC6(F)F)C5)cn4)cccc32)nn2c(C(=O)N[C@H]3C[C@H](C)C3)cnc12 [I-888] | B (B (90 to >75%)) | < 10 |  |
| CNc1cc(-c2ccc(N3CCN(CC4CC5(CCN(C(=O)c6ccc(Cl)c(N7CCC(=O)NC7=O)c6)CC5)C4)CC3)cc2)nn2c(C(=O)N[C@@H]3C[C@@H]3F)cnc12 [I-889] | D (D (<50%)) | > 100 |  |
| CNc1cc(N2CCc3c(CN4CCC(N5CCN(C(=O)c6ccc(Cl)c(N7CCC(=O)NC7=O)c6)CC5)C(F)(F)C4)cccc32)nn2c(C(=O)N[C@@H]3C[C@@H]3F)cnc12 (stereo partly shown) [I-890] | B (B (90 to >75%)) | < 10 |  |
| CNc1cc(N2CCc3c(CN4CCC(CN5CCN(C(=O)c6ccc(Cl)c(N7CCC(=O)NC7=O)c6)CC5)CC4)cccc32)nn2c(C(=O)N[C@@H]3C[C@@H]3F)cnc12 [I-891] | D (D (<50%)) | > 100 |  |
| CNc1cc(N2CCc3c(-c4ccc(N5CC6(CCN(C(=O)c7ccc(N8CCC(=O)NC8=O)c(Cl)c7)CC6)C5)cn4)cccc32)nn2c(C(=O)N[C@@H]3C[C@@H]3F)cnc12 [I-892] | B (B (90 to >75%)) | < 10 |  |
| CNc1cc(N2CCc3c(CN4CCC(CN5CCC6(CC5)CN(C(=O)c5ccc(Cl)c(N7CCC(=O)NC7=O)c5)C6)CC4)cccc32)nn2c(C(=O)N[C@@H]3C[C@@H]3F)cnc12 [I-893] | D (D (<50%)) | > 100 |  |
| CNc1cc(N2CCc3c(CN4CCC(CN5CC6(CCN(C(=O)c7ccc(Cl)c(N8CCC(=O)NC8=O)c7)CC6)C5)CC4)cccc32)nn2c(C(=O)N[C@@H]3C[C@@H]3F)cnc12 [I-894] | B (B (90 to >75%)) | < 10 |  |
| CNc1cc(N2CCc3c(CCN4CCC5(CC4)CCN(C(=O)c4ccc(Cl)c(N6CCC(=O)NC6=O)c4)CC5)cccc32)nn2c(C(=O)N[C@@H]3C[C@@H]3F)cnc12 [I-895] | D (D (<50%)) | > 100 |  |
| CNc1cc(N2CCc3c(-c4ccc(CN5CC6(CCN(C(=O)c7ccc(N8CCC(=O)NC8=O)c(Cl)c7)CC6)C5)cn4)cccc32)nn2c(C(=O)N[C@@H]3C[C@@H]3F)cnc12 [I-896] | D (D (<50%)) | > 100 |  |
| CNc1cc(N2CCc3c2cccc3C23CC(CN4CC5(CCN(C(=O)c6ccc(Cl)c(N7CCC(=O)NC7=O)c6)CC5(F)F)C4)(C2)C3)nn2c(C(=O)N[C@@H]3C[C@@H]3F)cnc12 [I-897] | B (B (90 to >75%)) | < 10 |  |
| CNc1cc(N2CCc3c(-c4ccc(CN5CCC6(CC5)CC(Oc5ccc(N7CCC(=O)NC7=O)c(Cl)c5)C6)cn4)cccc32)nn2c(C(=O)N[C@@H]3C[C@@H]3F)cnc12 [I-898] | D (D (<50%)) | > 100 |  |
| CNc1cc(N2CCc3c(N4CCC(CN5CC6(CCN(Cc7ccc(Cl)c(N8CCC(=O)NC8=O)c7)CC6(F)F)C5)CC4)cccc32)nn2c(C(=O)N[C@@H]3C[C@@H]3F)cnc12 [I-899] | D (D (<50%)) | > 100 |  |
| CNc1cc(N2CCc3c(CN4CCC(N5CCN(CCc6ccc(Cl)c(C7CCC(=O)NC7=O)c6)CC5)C(F)(F)C4)cccc32)nn2c(C(=O)NC3CC3F)cnc12 (stereo not shown) [I-900] | B (B (90 to >75%)) | < 10 |  |
| CNc1cc(N2CCc3c(-c4ccc(CN5CCC6(CCN(C(=O)c7ccc(Cl)c(N8CCC(=O)NC8=O)c7)CC6)C(F)(F)C5)cn4)cccc32)nn2c(C(=O)N[C@@H]3C[C@@H]3F)cnc12 [I-901] | A (A (>90%)) | < 1 |  |

| Structure (SMILES) | TYK2 MSD OCI-LY10 Dmax % | DC50 [nM] | Dmax [%] |
| --- | --- | --- | --- |
| CNc1cc(N2CCc3c(-c4ccc(CN5CCC(N6CCN(CCc7ccc(Cl)c(C8CCC(=O)NC8=O)c7)CC6)C(F)(F)C5)cn4)cccc32)nn2c(C(=O)NC3CC3F)cnc12 (stereo not shown) [I-902] | B (B (90 to >75%)) | < 10 |  |
| CNc1cc(N2CCc3c(CN4CCC(N5CC(N6CCN(c7cccc8c(N9CCC(=O)NC9=O)nn(C)c78)CC6)C5)C(F)(F)C4)cccc32)nn2c(C(=O)N[C@@H]3C[C@@H]3F)cnc12 (stereo partly shown) [I-903] | B (B (90 to >75%)) | < 10 |  |
| CNc1cc(N2CCc3c(CN4CCC(N5CC(N6CCN(c7cccn8c(N9CCC(=O)NC9=O)cnc78)CC6)C5)C(F)(F)C4)cccc32)nn2c(C(=O)N[C@@H]3C[C@@H]3F)cnc12 (stereo partly shown) [I-904] | A (A (>90%)) | < 1 |  |
| CNc1cc(N2CCc3c(-c4ccc(CN5CCC(N6CCN(c7ccc8c(c7F)n(C)c(=O)n8C7CCC(=O)NC7=O)CC6)C(F)(F)C5)cn4)cccc32)nn2c(C(=O)NC3CC3F)cnc12 (stereo not shown) [I-910] | B (B (90 to >75%)) | < 10 |  |
| CNC(=O)c1cnc(Nc2ccc(C(=O)NCCOCCOCCOCCOCCN(C(=O)[C@H]3CCCN(c4cncc5ccccc45)C3)c3ccc(=O)n(CC(=O)OC)c3)cn2)cc1Nc1cccc(-c2ncccn2)c1OC [I-912, Methyl (S)-2-(5-(1-(isoquinolin-4-yl)-N-(1-(6-((4-((2-methoxy-3-(pyrimidin-2-yl)phenyl)amino)-5-(methylcarbamoyl)pyridin-2-yl)amino)pyridin-3-yl)-1-oxo-5,8,11,14-tetraoxa-2-azahexadecan-16-yl)piperidine-3-carboxamido)-2-oxopyridin-1(2H)-yl)acetate] |  | > 100 | < 50 |
| CNC(=O)c1cnc(Nc2ccc(C(=O)NCCOCCOCCN(C(=O)[C@H]3CCCN(c4cncc5ccccc45)C3)c3ccc(=O)n(CC(=O)O)c3)cn2)cc1Nc1cccc(-c2ncccn2)c1OC [I-915, (S)-2-(5-(1-(isoquinolin-4-yl)-N-(2-(2-(2-(6-((4-((2-methoxy-3-(pyrimidin-2-yl)phenyl)amino)-5-(methylcarbamoyl)pyridin-2-yl)amino)nicotinamido)ethoxy)ethoxy)ethyl)piperidine-3-carboxamido)-2-oxopyridin-1(2H)-yl)acetic acid] |  | 10 to 100 | 50 to 75 |
| CNC(=O)c1cnc(Nc2ccc(C(=O)NCCOCCOCCOCCN(C(=O)C3CCCN(c4cncc5ccccc45)C3)c3ccc(=O)n(CC(=O)O)c3)cn2)cc1Nc1cccc(-c2ncccn2)c1OC (stereo not shown) [I-918] | D (D (<50%)) | > 100 |  |
| CNC(=O)c1cnc(Nc2ccc(C(=O)NCCOCCOCCOCCOCCN(C(=O)C3CCCN(c4cncc5ccccc45)C3)c3ccc(=O)n(CC(=O)O)c3)cn2)cc1Nc1cccc(-c2ncccn2)c1OC (stereo not shown) [I-920] | D (D (<50%)) | > 100 |  |
| CNc1cc(N2CCc3c(-c4ncc(CN5CC6(CCN(C(=O)c7cc(N8CCC(=O)NC8=O)c(Cl)c(C)n7)CC6(F)F)C5)cc4F)cccc32)nn2c(C(=O)N[C@@H]3C[C@@H]3F)cnc12 [I-930] | A (A (>90%)) | < 1 |  |
| CNc1cc(N2CCc3c(-c4ncc(CN5CC6(CCN(C(=O)c7cc(Cl)c(C)c(N8CCC(=O)NC8=O)c7)CC6(F)F)C5)cc4F)cc(F)cc32)nn2c(C(=O)N[C@@H]3C[C@@H]3F)cnc12 [I-944] | A (A (>90%)) | < 1 |  |
| CNc1cc(N2CCc3c(-c4ncc(CN5CC6(CCN(C(=O)c7cc(C)c(Cl)c(N8CCC(=O)NC8=O)c7)CC6(F)F)C5)cc4F)cc(F)cc32)nn2c(C(=O)N[C@@H]3C[C@@H]3F)cnc12 [I-946] | A (A (>90%)) | < 1 |  |
| CNc1cc(N2CCc3c(-c4cc(C)c(CN5CC6(CCN(C(=O)c7cc(C)c(Cl)c(N8CCC(=O)NC8=O)c7)CC6(F)F)C5)cn4)cccc32)nn2c(C(=O)N[C@@H]3C[C@@H]3F)cnc12 [I-958] | A (A (>90%)) | < 1 |  |
| CNc1cc(N2CCc3c(-c4ccc(CN5CC6(CCN(C(=O)c7cc(C)c(Cl)c(N8CCC(=O)NC8=O)c7)CC6(F)F)C5)c(C)n4)cccc32)nn2c(C(=O)N[C@@H]3C[C@@H]3F)cnc12 [I-966] | B (B (90 to >75%)) | < 10 |  |
| CNc1cc(N2CCc3c(-c4ccc(CN5CC6(CCN(C(=O)c7ccc(C(F)(F)F)c(N8CCC(=O)NC8=O)c7)CC6(F)F)C5)cn4)cccc32)nn2c(C(=O)N[C@@H]3C[C@@H]3F)cnc12 [I-969] | C (C (75 to 50%)) | < 10 |  |
| CNc1cc(N2CCc3c(-c4ncc(CN5CC6(CCN(C(=O)c7cc(N8CCC(=O)NC8=O)c(C)cn7)CC6(F)F)C5)cc4F)cc(F)cc32)nn2c(C(=O)N[C@@H]3C[C@@H]3F)cnc12 [I-971] | B (B (90 to >75%)) | < 1 |  |
| CNc1cc(N2CCc3c(-c4ccc(CN5CC6(CCN(C(=O)c7ccc(C(F)F)c(N8CCC(=O)NC8=O)c7)CC6(F)F)C5)cn4)cccc32)nn2c(C(=O)N[C@@H]3C[C@@H]3F)cnc12 [I-977] | C (C (75 to 50%)) | < 10 |  |
| CNc1cc(N2CCc3c(-c4ccc(CN5CCC6(CCN(C(=O)c7ccc(C(F)(F)F)c(N8CCC(=O)NC8=O)c7)CC6)C(F)(F)C5)cn4)cccc32)nn2c(C(=O)N[C@@H]3C[C@@H]3F)cnc12 [I-978] | D (D (<50%)) | < 10 |  |

Reference: patent US20260125400A1, “TYK2 DEGRADERS AND USES THEREOF” (Kymera Therapeutics, Inc., priority 2023, published 2026)
